Read-outs that look alike come from different tables or passages of the source. Numbered stars: 1 amine (or outer) side, 2 acyl side, 3 side chain; on linkers, the order of the positions; unused ones are H or OH. Bridge positions count the residues as written; N and C are the ends. Square brackets hold non-standard residues; d marks the D form. Peptide text beside a SMILES is read from it. * marks the point of attachment. Trp(βS-Me,7-OMe) = COc1cccc2c([C@H](C)[C@H](N)C(=O)O)c[nH]c12; Trp(1-CH2COOH) = N[C@@H](Cc1cn(CC(=O)O)c2ccccc12)C(=O)O; Phe(4-CH2CH2COOH) = N[C@@H](Cc1ccc(CCC(=O)O)cc1)C(=O)O; Phe(4-SO2NH2) = N[C@@H](Cc1ccc(S(N)(=O)=O)cc1)C(=O)O; Phe(2-F,4-COOH) = N[C@@H](Cc1ccc(C(=O)O)cc1F)C(=O)O; dPro(trans-4-NMe2) = CN(C)[C@@H]1CN[C@@H](C(=O)O)C1; Trp(7-CN) = N#Cc1cccc2c(C[C@H](N)C(=O)O)c[nH]c12; Trp(7-Cl) = N[C@@H](Cc1c[nH]c2c(Cl)cccc12)C(=O)O; X20 = O=C1NCc2ccc(C[C@H](N[*:1])C(=O)[*:2])cc21; Phe(3-CONH2) = NC(=O)c1cccc(C[C@H](N)C(=O)O)c1; Phe(4-CONH2) = NC(=O)c1ccc(C[C@H](N)C(=O)O)cc1; Phe(4-COOH) = N[C@@H](Cc1ccc(C(=O)O)cc1)C(=O)O; Trp(7-aza) = N[C@@H](Cc1c[nH]c2ncccc12)C(=O)O; dPro(trans-4-F) = O=C(O)[C@H]1C[C@H](F)CN1; dPro(4S-NH2) = N[C@@H]1CN[C@@H](C(=O)O)C1; Pip(5R-OH) = O=C(O)[C@@H]1CC[C@@H](O)CN1; X1 = O=C([C@@H]1CC[C@H](N[*:1])C1)[*:2]; NMeT = CN[C@H](C(=O)O)[C@@H](C)O; 4Pal = N[C@@H](Cc1ccncc1)C(=O)O; NMeE = CN[C@@H](CCC(=O)O)C(=O)O; dHyp = O=C(O)[C@H]1C[C@H](O)CN1; NEtAla = CCN[C@@H](C)C(=O)O; αMeS = C[C@](N)(CO)C(=O)O; Carboxymethyl = O=C(O)C*; Nle = CCCC[C@H](N)C(=O)O; Sar = CNCC(=O)O
Tests used:
[1] = molecular target: T1, human TNFR1 extracellular domain (ECD) protein (Homo sapiens, UniProt P19438); experiment: SPR binding affinity to captured human TNFR1 ECD
T1 construct: HRV 3C protease cleavage site (C); 6His (C, cleaved yes); made in house; host or cells: Sf21 insect cells (baculovirus), secreted
T1 sequence (P19438 30-211): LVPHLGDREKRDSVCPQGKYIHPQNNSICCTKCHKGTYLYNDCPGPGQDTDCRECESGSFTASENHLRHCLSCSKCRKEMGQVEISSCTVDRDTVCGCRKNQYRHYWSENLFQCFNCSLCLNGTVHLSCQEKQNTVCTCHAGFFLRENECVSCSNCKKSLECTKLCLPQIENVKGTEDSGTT
How it was run: (§1)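 Peptides are tested against captured biotin-tagged human TNFR1 ECD, with parallel TNFR2 ECD binding to check selectivity. Buffer: 10 mM HEPES pH 7.4, 150 mM NaCl, 3 mM EDTA, 0.05% P20, 2% DMSO.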

[2] = molecular target: T2, human TNFR2 ECD protein (Homo sapiens, UniProt P20333); experiment: SPR off-target binding (selectivity) to human TNFR2 ECD
T2 construct: HRV 3C protease cleavage site (C); 6His (C, cleaved yes); made in house; host or cells: Sf21 insect cells (baculovirus), secreted
T2 sequence (P20333 23-257): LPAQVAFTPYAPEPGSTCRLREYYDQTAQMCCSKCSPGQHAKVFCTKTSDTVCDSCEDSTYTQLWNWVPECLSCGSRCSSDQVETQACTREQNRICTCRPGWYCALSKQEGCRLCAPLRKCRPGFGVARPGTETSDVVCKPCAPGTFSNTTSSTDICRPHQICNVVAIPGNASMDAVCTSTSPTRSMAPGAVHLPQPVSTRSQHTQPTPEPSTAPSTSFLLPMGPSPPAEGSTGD
How it was run: as §1

[3] = biotinylated human TNFR1 ECD on streptavidin chip, from kon and koff, read-out: SPR hTNFR1 KD
[4] = biotinylated human TNFR2 ECD on streptavidin chip, read-out: SPR hTNFR2 KD

Compound	Kd [1] [nM]	Kd [2] [nM]	Kd [1, 3] [nM]	Kd [2, 4] [nM]
CCCC[C@@H]1NC(=O)[C@@H]2CC[C@@H](C2)NC(=O)[C@H]([C@@H](C)c2c[nH]c3c(OC)cccc23)NC(=O)CN(C)C(=O)[C@H](Cc2ccc(C(N)=O)cc2)NC(=O)[C@H](Cc2ccc(S(N)(=O)=O)cc2)NC(=O)[C@](C)(CO)NC(=O)[C@H](Cc2c[nH]c3c(C#N)cccc23)NC(=O)[C@H](Cc2ccc(C(=O)O)cc2)NC(=O)[C@H](CC(N)=O)NC(=O)[C@H]2C[C@H](N(C)C)CN2C(=O)[C@H](Cc2cn(CC(=O)O)c3ccccc23)NC(=O)[C@@H]2CC[C@@H](O)CN2C(=O)[C@H](Cc2ccncc2)NC1=O [SEQ ID NO. 2] (cyclo([4Pal][Pip(5R-OH)][Trp(1-CH2COOH)][dPro(trans-4-NMe2)]N[Phe(4-COOH)][Trp(7-CN)][αMeS][Phe(4-SO2NH2)][Phe(4-CONH2)][Sar][Trp(βS-Me,7-OMe)][X1][Nle]))	0.07	> 1000	–	–
CCCC[C@@H]1NC(=O)[C@@H]2CC[C@@H](C2)NC(=O)[C@H]([C@@H](C)c2c[nH]c3c(OC)cccc23)NC(=O)CN(C)C(=O)[C@H](Cc2ccc(OCC(=O)O)cc2)NC(=O)[C@H](Cc2ccc(S(N)(=O)=O)cc2)NC(=O)[C@](C)(CO)NC(=O)[C@H](Cc2c[nH]c3c(C#N)cccc23)NC(=O)[C@H](Cc2ccc(OCC(=O)O)cc2)NC(=O)[C@H](CC(N)=O)NC(=O)[C@H]2C[C@H](N)CN2C(=O)[C@H](Cc2cn(CC(=O)O)c3ccccc23)NC(=O)[C@@H]2CC[C@@H](O)CN2C(=O)[C@H](Cc2ccncc2)NC1=O [SEQ ID NO. 18] (cyclo([4Pal][Pip(5R-OH)][Trp(1-CH2COOH)][dPro(4S-NH2)]NY(Carboxymethyl)[Trp(7-CN)][αMeS][Phe(4-SO2NH2)]Y(Carboxymethyl)[Sar][Trp(βS-Me,7-OMe)][X1][Nle]))	–	–	0.05	> 1000
CCCC[C@@H]1NC(=O)[C@@H]2CC[C@@H](C2)NC(=O)[C@H]([C@@H](C)c2c[nH]c3c(OC)cccc23)NC(=O)CN(C)C(=O)[C@H](Cc2cccc(C(N)=O)c2)NC(=O)[C@H](Cc2ccc(C(N)=O)cc2)NC(=O)[C@](C)(CO)NC(=O)[C@H](Cc2c[nH]c3c(C#N)cccc23)NC(=O)[C@H](Cc2ccc(C(=O)O)cc2)NC(=O)[C@H](CC(N)=O)NC(=O)[C@H]2C[C@H](F)CN2C(=O)[C@H](Cc2c[nH]c3ccccc23)NC(=O)[C@@H]2CC[C@@H](O)CN2C(=O)[C@H](Cc2ccncc2)NC1=O [SEQ ID NO. 21] (cyclo([4Pal][Pip(5R-OH)]W[dPro(trans-4-F)]N[Phe(4-COOH)][Trp(7-CN)][αMeS][Phe(4-CONH2)][Phe(3-CONH2)][Sar][Trp(βS-Me,7-OMe)][X1][Nle]))	0.03	> 1000	–	–
CCCC[C@@H]1NC(=O)[C@@H]2CC[C@@H](C2)NC(=O)[C@H]([C@@H](C)c2c[nH]c3c(OC)cccc23)NC(=O)CN(C)C(=O)[C@H](Cc2ccc(C(N)=O)cc2)NC(=O)[C@H](Cc2ccc(C(N)=O)cc2)NC(=O)[C@](C)(CO)NC(=O)[C@H](Cc2c[nH]c3c(C#N)cccc23)NC(=O)[C@H](Cc2ccc3c(c2)C(=O)NC3)NC(=O)[C@H](CC(N)=O)NC(=O)[C@H]2C[C@H](OCC(=O)O)CN2C(=O)[C@H](Cc2cn(CC(=O)O)c3ccccc23)NC(=O)[C@@H]2CC[C@@H](O)CN2C(=O)[C@H](Cc2ccncc2)NC1=O [SEQ ID NO. 22] (cyclo([4Pal][Pip(5R-OH)][Trp(1-CH2COOH)][dHyp](Carboxymethyl)N[X20][Trp(7-CN)][αMeS][Phe(4-CONH2)][Phe(4-CONH2)][Sar][Trp(βS-Me,7-OMe)][X1][Nle]))	–	–	0.09	> 1000
CCCC[C@@H]1NC(=O)CSC[C@@H](C(N)=O)NC(=O)[C@H]([C@@H](C)c2c[nH]c3c(OC)cccc23)NC(=O)CN(C)C(=O)[C@H](Cc2ccc(O)cc2)NC(=O)[C@H](Cc2ccc(C(=O)O)cc2)NC(=O)[C@](C)(CO)NC(=O)[C@H](Cc2c[nH]c3c(Cl)cccc23)NC(=O)[C@H](Cc2ccncc2)NC(=O)[C@H](CC(N)=O)NC(=O)[C@H](CCC(=O)O)N(C)C(=O)[C@H](Cc2c[nH]c3ncccc23)NC(=O)[C@H]([C@@H](C)O)N(C)C(=O)[C@H](Cc2ccncc2)NC1=O [SEQ ID NO. 29] ({CH2CO}-[Nle][4Pal][NMeT][Trp(7-aza)][NMeE]N[4Pal][Trp(7-Cl)][αMeS][Phe(4-COOH)]Y[Sar][Trp(βS-Me,7-OMe)]C-NH2; thioether N-14)	0.28	> 1000	–	–
CCCC[C@@H]1NC(=O)[C@@H]2CC[C@@H](C2)NC(=O)[C@H]([C@@H](C)c2c[nH]c3c(OC)cccc23)NC(=O)CN(C)C(=O)[C@H](Cc2ccc(CCC(=O)O)cc2)NC(=O)[C@H](Cc2ccc(S(N)(=O)=O)cc2)NC(=O)[C@](C)(CO)NC(=O)[C@H](Cc2c[nH]c3c(C#N)cccc23)NC(=O)[C@H](Cc2ccc(OCC(=O)O)cc2)NC(=O)[C@H](CC(N)=O)NC(=O)[C@H]2C[C@H](O)CN2C(=O)[C@H](Cc2c[nH]c3ncccc23)NC(=O)[C@@H]2CC[C@@H](O)CN2C(=O)[C@H](Cc2ccncc2)NC1=O [SEQ ID NO. 30] (cyclo([4Pal][Pip(5R-OH)][Trp(7-aza)][dHyp]NY(Carboxymethyl)[Trp(7-CN)][αMeS][Phe(4-SO2NH2)][Phe(4-CH2CH2COOH)][Sar][Trp(βS-Me,7-OMe)][X1][Nle]))	–	–	0.05	> 1000
CCCC[C@@H]1NC(=O)CSC[C@@H](C(N)=O)NC(=O)[C@H]([C@@H](C)c2c[nH]c3c(OC)cccc23)NC(=O)CN(C)C(=O)[C@H](Cc2ccc(O)cc2)NC(=O)[C@H](Cc2ccc(C(=O)O)cc2)NC(=O)[C@](C)(CO)NC(=O)[C@H](Cc2c[nH]c3c(Cl)cccc23)NC(=O)[C@H](Cc2ccncc2)NC(=O)[C@H](CC(N)=O)NC(=O)[C@H](CCC(=O)O)N(C)C(=O)[C@H](Cc2c[nH]c3ncccc23)NC(=O)[C@H](C)N(CC)C(=O)[C@H](Cc2ccncc2)NC1=O [SEQ ID NO. 38] ({CH2CO}-[Nle][4Pal][NEtAla][Trp(7-aza)][NMeE]N[4Pal][Trp(7-Cl)][αMeS][Phe(4-COOH)]Y[Sar][Trp(βS-Me,7-OMe)]C-NH2; thioether N-14)	0.34	> 1000	–	–
CCCC[C@@H]1NC(=O)[C@@H]2CC[C@@H](C2)NC(=O)[C@H]([C@@H](C)c2c[nH]c3c(OC)cccc23)NC(=O)CN(C)C(=O)[C@H](Cc2ccc(C(=O)O)cc2F)NC(=O)[C@H](Cc2ccc(C(N)=O)cc2)NC(=O)[C@](C)(CO)NC(=O)[C@H](Cc2c[nH]c3c(Cl)cccc23)NC(=O)[C@H](Cc2ccc(C(=O)O)cc2F)NC(=O)[C@H](CC(N)=O)NC(=O)[C@H]2C[C@H](O)CN2C(=O)[C@H](Cc2c[nH]c3ccccc23)NC(=O)[C@@H]2CC[C@@H](O)CN2C(=O)[C@H](Cc2ccncc2)NC1=O [SEQ ID NO. 41] (cyclo([4Pal][Pip(5R-OH)]W[dHyp]N[Phe(2-F,4-COOH)][Trp(7-Cl)][αMeS][Phe(4-CONH2)][Phe(2-F,4-COOH)][Sar][Trp(βS-Me,7-OMe)][X1][Nle]))	0.12	> 1000	–	–
CCCC[C@@H]1NC(=O)[C@@H]2CC[C@@H](C2)NC(=O)[C@H]([C@@H](C)c2c[nH]c3c(OC)cccc23)NC(=O)CN(C)C(=O)[C@H](Cc2ccc(C(N)=O)cc2)NC(=O)[C@H](Cc2ccc(C(N)=O)cc2)NC(=O)[C@](C)(CO)NC(=O)[C@H](Cc2c[nH]c3c(C#N)cccc23)NC(=O)[C@H](Cc2ccc(C(=O)O)cc2)NC(=O)[C@H](CC(N)=O)NC(=O)[C@H]2C[C@H](O)CN2C(=O)[C@H](Cc2c[nH]c3ccccc23)NC(=O)[C@@H]2CC[C@@H](O)CN2C(=O)[C@H](Cc2ccncc2)NC1=O [SEQ ID NO. 45] (cyclo([4Pal][Pip(5R-OH)]W[dHyp]N[Phe(4-COOH)][Trp(7-CN)][αMeS][Phe(4-CONH2)][Phe(4-CONH2)][Sar][Trp(βS-Me,7-OMe)][X1][Nle]))	–	–	0.01	> 1000

From patent US20240287138A1, “CYCLIC PEPTIDES FOR INHIBITING TNF RECEPTOR 1 ACTIVITY” (Merck Sharp & Dohme LLC, priority 2023, published 2024)
